Values quoted from earlier work, collected in US5993851A, “Method for preparing biphasic multilamellar lipid vesicles” (PharmaDerm Laboratories, Ltd., priority 1998, dated 1999).

System: genital warts

Substance: interferon alpha
- Clinical outcome in words (in vivo): fairly successful
- side effects (systemic application (i.m. injection), genital warts): fever, myalgias, headache, nausea, fatigue
